Patent publication US5659049A, “Antioxidant, antiphospholipase derivatives of ricinoleic acid” (Virginia Commonwealth University, priority 1995, dated 1997)
Structures can show the parent of a compound that is named as a salt.

Tests used:
[1] = Oxidation of arachidonic acid (decreased turbidity and hydroperoxide formation)
[2] = Anti-oxidant activity (comparative Table 6); conditions: read-out: IC-50 Anti-Oxidant Activity; nd = not detectable at ≤ 500 uM
[3] = system: PLA2; experiment: Anti-PLA2 activity (comparative Table 6); assay type: biochemical; conditions: nd = not detectable at ≤ 500 uM; read-out: IC-50 Anti-PLA2 Activity
[4] = Auto-oxidation of phosphatidylethanolamine; assay type: biochemical; conditions: for % Oxidized PE / % Unoxidized PE: 24 hrs; for % Oxidized PE: PE alone 39.3%; for % Unoxidized PE: PE alone 51.1%
[5] = target: T1, human synovial PLA2 (Homo sapiens, UniProt P14555); experiment: Inhibition of human synovial PLA2 activity in vitro; assay type: biochemical; conditions: for IC50: each compound prepared as a sodium salt, FIG. 9, approximately
T1 construct: from tissue; host or cells: human synovial (fluid)
T1 sequence (P14555 21-144): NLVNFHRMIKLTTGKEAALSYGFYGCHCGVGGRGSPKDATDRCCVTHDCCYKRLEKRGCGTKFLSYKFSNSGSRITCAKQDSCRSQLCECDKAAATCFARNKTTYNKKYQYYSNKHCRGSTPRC
From the text: FIG. 9 is a graph illustrating the ability of the compounds of the invention to inhibit PLA2 activity in vitro.

[6] = target: T2, human synovial fluid PLA2 (SF-PLA2) (Homo sapiens, UniProt P14555); experiment: Human SF-PLA2 induced mouse paw edema, oral administration; assay type: in vivo; conditions: for % Increase Weight: control 61%
T2 construct: intra-articular injection of human synovial fluid PLA2 (SF-PLA2) into the mouse paw; from tissue; host or cells: human synovial fluid
T2 sequence (P14555 21-144): T1 sequence (P14555 21-144)
Protocol: The mouse paw edema is inhibited in dose related fashion by increasing concentrations of RISE-1 given orally 1.0 hours before induction of the edema by SF-PLA2.

[7] = system: human polymorphonuclear leukocytes (PMNs); experiment: Inhibition of arachidonic acid release from prelabelled human PMNs; conditions: Leukocyte, read-out: % Inhibition of arachidonic acid release
[8] = target: T3, human plasma PLA2 (Homo sapiens, UniProt P14555); experiment: In vitro inhibition of PLA2 derived from plasma (FIG. 8); assay type: biochemical
T3 construct: from tissue; host or cells: human plasma
T3 sequence (P14555 21-144): T1 sequence (P14555 21-144)

[9] = target: T4, platelet PLA2 (Homo sapiens, UniProt P14555); experiment: In vitro inhibition of PLA2 derived from platelets (FIG. 8); assay type: biochemical
T4 construct: from tissue; host or cells: platelets
T4 sequence (P14555 21-144): T1 sequence (P14555 21-144)

[10] = system: sperm PLA2; experiment: In vitro inhibition of PLA2 derived from sperm (FIG. 8); assay type: biochemical, human
[11] = system: rat adjuvant induced arthritis; experiment: Rat adjuvant induced arthritis; conditions: in vivo
[12] = RISE-1 10 mg/kg orally 1.0 hours before SF-PLA2
[13] = RISE-1 30 mg/kg orally 1.0 hours before SF-PLA2
[14] = RISE-1 100 mg/kg orally 1.0 hours before SF-PLA2

## Cc1cc(C(C)(C)C)c(O)c(C(C)(C)C)c1 [BHT, betahydroxytoluene, reference compound]
[1]; 100 uM, time 0 hrs, control 1.38
  Turbidity (430 nm): 1.31
[1]; 100 uM, time 0 hrs, control 100
  Hydroperoxide: 119 nmols
[1]; 100 uM, time 24 hrs, control 378
  Hydroperoxide: 112 nmols
[1]; 100 uM, time 24 hrs, control .387
  Turbidity (430 nm): 1.283

## CCCCCCC(C/C=C\CCCCCCCC(=O)O)OC(=O)/C=C/C(=O)O (centres unmarked) [PX-2]
[2]
  IC50: > 500 µM
[3]
  IC50: > 500 µM

## CCCCCCCC/C=C\CCCCCCCC(=O)OC(C/C=C\CCCCCCCC(=O)O)CCCCCC (centres unmarked) [PX-3, Ricinoleic Acid Oleic Acid Ester]
[4]; 25 μM
  Percent Protection: 16%
[4]; 50 μM
  Percent Protection: 16%
[4]; 100 μM
  Percent Protection: 13%
[4]; 250 μM
  Percent Protection: 22%
[4]; 500 μM
  Percent Protection: 27%
[5]
  IC50: 5 to 10 µM
[2]
  IC50: > 500 µM
[3]
  IC50: 7.2 µM

## CCCCC/C=C\C/C=C\CCCCCCCC(=O)OC(C/C=C\CCCCCCCC(=O)O)CCCCCC (centres unmarked) [PX-4, Ricinoleic Acid Linoleic Acid Ester]
[4]; 25 μM
  Percent Protection: 13%
[4]; 50 μM
  Percent Protection: 22%
[4]; 100 μM
  Percent Protection: 38%
[4]; 250 μM
  Percent Protection: 53%
[4]; 500 μM
  Percent Protection: 73%
[5]
  IC50: 5 to 10 µM
[2]
  IC50: 210 µM
[3]
  IC50: 10 µM

## CCCCCCCC/C=C\CCCCCCCCOC(=O)CCCCCCC/C=C\CC(CCCCCC)OC(=O)/C=C/C(=O)O (centres unmarked) [PX-5, Oleyl Alcohol-Ricinoleate-Fumaric Acid Diester]
[4]; 25 μM
  Percent Protection: 28%
[4]; 50 μM
  Percent Protection: 24%
[4]; 100 μM
  Percent Protection: 31%
[4]; 250 μM
  Percent Protection: 47%
[4]; 500 μM
  Percent Protection: 62%
[5]
  IC50: 5 to 10 µM
[2]
  IC50: 300 µM
[3]
  IC50: 5 µM

## CCCCCCC(O)C/C=C\CCCCCCCC(=O)OC(C/C=C\CCCCCCCC(=O)O)CCCCCC (centres unmarked) [PX-6]
[2]
  IC50: 300 µM
[3]
  IC50: 4.5 µM

## CCCCCCC(C/C=C\CCCCCCCC(=O)O)OC(=O)/C=C/C(=O)OC(C/C=C\CCCCCCCC(=O)O)CCCCCC (centres unmarked) [PX-7, Diricinoleic Acid Fumarate Diester]
[2]
  IC50: 130 µM
[3]
  IC50: 7 µM

## CCCCCCCC/C=C\CCCCCCCCOC(=O)CCCCCCC/C=C\CC(CCCCCC)OC(=O)/C=C\C(=O)O (centres unmarked) [PX-8]
[2]
  IC50: 140 µM
[3]
  IC50: 3.5 µM

## CCCCCCCC/C=C\CCCCCCCC(=O)OCC(COC(=O)CCCCCCC/C=C\CCCCCCCC)(COC(=O)CCCCCCC/C=C\CCCCCCCC)NCCS(=O)(=O)O [PX-13, TES Triolears]
[6]; mouse, po, administered single dose orally, read-out: IC50 vs PLA2 induced mouse paw edema
  ED50: ~15 mg/kg

## CCCCC/C=C\C/C=C\CCCCCCCC(=O)OCC(N)(COC(=O)CCCCCCC/C=C\C/C=C\CCCCC)COC(=O)CCCCCCC/C=C\C/C=C\CCCCC [PX-14]
[2]
  IC50: 70 µM
[3]
  IC50: 4.4 µM

## CCCCC/C=C\C/C=C\CCCCCCCC(=O)OCC1(COC(=O)CCCCCCC/C=C\C/C=C\CCCCC)COC(=O)CN1C(=O)CCCCCCC/C=C\C/C=C\CCCCC [PX-15]
[2]
  IC50: > 500 µM

## CCCCCCC(C/C=C\CCCCCCCC(=O)O)OC(=O)CCCCCCCCC(=O)O (centres unmarked) [RISE-1, Ricinoleic Acid Sebacyl Ester]
[6]; [12]
  % Protection: 23%
  % Increase Weight: 47%
[6]; [13]
  % Protection: 38%
  % Increase Weight: 38%
[6]; [14]
  % Protection: 49%
  % Increase Weight: 31%
[4]; 25 uM
  % Oxidized PE: 42.0%
  % Unoxidized PE: 50.6%
[4]; 100 uM
  % Oxidized PE: 42.4%
  % Unoxidized PE: 49.6%
[5]; FIG. 8
  Inhibition of PLA2 derived from human synovial fluid: dose related, selective in vitro inhibition
[5]
  IC50: 5 to 10 µM
[7]
  inhibition at 25 µM: 0%
  inhibition at 50 µM: 19%
  inhibition at 75 µM: 38%
  inhibition at 100 µM: 72%
[8]
  Inhibition of PLA2 derived from plasma: dose related, selective in vitro inhibition
[9]
  Inhibition of PLA2 derived from platelets: dose related, selective in vitro inhibition
[1]; 25 uM, time 0 hrs, control 1.38
  Turbidity (430 nm): 1.33
[1]; 25 uM, time 0 hrs, control 100
  Hydroperoxide: 109 nmols
[1]; 25 uM, time 24 hrs, control 378
  Hydroperoxide: 437 nmols
[1]; 25 uM, time 24 hrs, control .387
  Turbidity (430 nm): .524
[1]; 50 uM, time 0 hrs, control 1.38
  Turbidity (430 nm): 1.47
[1]; 50 uM, time 0 hrs, control 100
  Hydroperoxide: 109 nmols
[1]; 50 uM, time 24 hrs, control 378
  Hydroperoxide: 428 nmols
[1]; 50 uM, time 24 hrs, control .387
  Turbidity (430 nm): .348
[10]
  Inhibition of PLA2 derived from sperm: dose related, selective in vitro inhibition
[11]
  Inhibition of rat adjuvant induced arthritis: does not inhibit
